Patent publication US20190008848A1, “IDENTIFICATION OF ADDITIONAL ANTI-PERSISTER ACTIVITY AGAINST BORRELIA BURGDORFERI FROM AN FDA DRUG LIBRARY” (THE JOHNS HOPKINS UNIVERSITY, priority 2015, published 2019)
Entries after “also recorded” stand apart in the source; their conditions may differ. Structures can show the parent of a compound that is named as a salt. Where two headings read alike, the source gives them in different places.

Tests used:
[1] = system: stationary phase B. burgdorferi; experiment: SYBR Green I/PI viability assay (drug library screen, plate reader); settings: for viability at 50 µM: Borreliella burgdorferi, 168 h; for viability at 50 µM / Residual viable cells (SYBR Green/PI) / Residual viable cells (SYBR/PI): drugs 50 μM; for activity against stationary phase B. burgdorferi (in words): screen at 50 μM, 7 days; for Residual viable cells (SYBR Green/PI): Table 1; for Residual viable cells (SYBR/PI): Table 3
Protocol: (§1) Borrelia burgdorferi strain B31 (ATCC35210) was received from the […] (Manassas, Va., USA) and was grown in BSK-H medium (HiMedia Laboratories, Mumbai, India) and 6% rabbit serum (Sigma Aldrich, St. Louis, Mo., USA). The culture was filtered and sterilized using a […] and incubated in capped sterile 50 mL conical tubes (BD Biosciences, CA, USA) at 33° C. for 7 days without antibiotics until the culture reached stationary phase.
(§2) The cultures were examined using a Nikon Eclipse E800 microscope with differential interference contrast and epifluorescent illumination. The pictures were captured using a SPOT slider color camera. A SYBR Green I/PI assay was used to assess the viability of the bacterial sample using the ratio of live to dead B. burgdorferi (measured with green and red fluorescence, respectively) as measured by a plate reader.
(§3) Briefly, prediluted drug stock (10 μL) was added to 7 day old stationary phase B. burgdorferi culture (90 μL) to achieve a 50 μM final drug concentration per well. The plates were then incubated at 33° C. for 7 days at which point the SYBR/PI rapid viability assay was performed in a fluorescence plate reader to obtain the green-red fluorescence ratio.

[2] = system: growing B. burgdorferi; experiment: MIC of active hits; type: cell-based, Borrelia burgdorferi
[3] = system: stationary phase B. burgdorferi; experiment: Residual viable B. burgdorferi by epifluorescence microscope counting after drug exposure; settings: for viability at 50 µM: Borreliella burgdorferi, 168 h, read-out: Residual viable cells (Microscopy)
Protocol: as §1, §2, §3

[4] = read-out: Residual viable cells (SYBR/PI), Table 3, 7-day old stationary phase cells treated for 7 days
[5] = Borreliella burgdorferi, read-out: MIC
[6] = Table 1, drugs 50 μM, 7 day old stationary phase cells treated for 7 days
[7] = Table 3, drugs 50 μM, 7-day old stationary phase cells treated for 7 days
[8] = 7 day old stationary phase cells treated for 7 days
[9] = 7-day old stationary phase cells treated for 7 days
[10] = read-out: Residual viable cells (SYBR Green/PI), Table 1, 7 day old stationary phase cells treated for 7 days

Compound | viability at 50 µM [1, 4] | activity against stationary phase B. burgdorferi (in words) [1] | MIC [2, 5] | viability at 50 µM [3] | viability at 50 µM [1, 10] | further results
CCCCCCCCCCCC[N+](C)(C)Cc1ccccc1 [Benzododecinium chloride] | 40% | very high activities | 0.6 to 1.2 µg/mL | – | – | –
Dextrorphan tartrate | – | high activity | – | – | – | Residual viable cells (Microscopy) [3, 6]: 43%; Residual viable cells (Microscopy) [3, 7]: 43%; Residual viable cells (SYBR Green/PI) [1, 8]: 47%; Residual viable cells (SYBR/PI) [1, 9]: 47%; MIC [2]: 1.27 to 2.55 µg/mL
CO[C@H]1/C=C/O[C@@]2(C)Oc3c(C)c(O)c4c(O)c(c(C=O)c(O)c4c3C2=O)NC(=O)/C(C)=C\C=C\[C@H](C)[C@H](O)[C@@H](C)[C@@H](O)[C@@H](C)[C@H](OC(C)=O)[C@@H]1C [3-formyl Rifamycin] | – | – | – | – | – | Residual viable cells (Microscopy) [3, 6]: 59%; Residual viable cells (Microscopy) [3, 7]: 59%; Residual viable cells (SYBR Green/PI) [1, 8]: 42%; Residual viable cells (SYBR/PI) [1, 9]: 42%; MIC [2]: 2.27 to 4.54 µg/mL
CCCCCCCCCCCCCCCC[N+](C)(C)CCN(Cc1ccc(OC)cc1)c1ncccn1 [Thonzonium bromide] | 31% | very high activities; also recorded: comparable activity to daptomycin | 0.92 to 1.85 µg/mL | 33% | – | –
Verteporfin | – | high activity | – | – | – | Residual viable cells (Microscopy) [3]: 47%; MIC [2]: 4.49 to 8.98 µg/mL
O=C(O)[C@@H]1CCC(O)=N1 (racemic) [Pidolic acid, DL-2-Pyrrolidone-5-Carboxylic Acid] | 43% | high activity | 0.81 to 1.61 µg/mL | 45% | 45% | –
CN(C)c1ccc2nc3ccc(=[N+](C)C)cc-3sc2c1 [Methylene blue hydrate] | – | good activity | – | 40% | – | activity against B. burgdorferi persisters by careful microscopy analysis (in words) ([3]; coloured drugs verified by microscopy): high activity
O=C(O)c1cn(-c2ccc(F)cc2)c2cc(N3CCNCC3)c(F)cc2c1=O [Sarafloxacin, Sarafloxacin HCl] | 47% | – | – | 50% | 47% | –
Cc1c(-c2cnccn2)ssc1=S [Oltipraz] | 46% | high activity | 0.71 to 1.41 µg/mL | 55% | 46% | –
C[C@H]1[C@H](NC(=O)/C(=N\OC(C)(C)C(=O)O)c2csc(N)n2)C(=O)N1S(=O)(=O)O [Aztreonam] | 55% | – | – | 50% | 55% | –
OC(Cn1cncn1)(Cn1cncn1)c1ccc(F)cc1F [Fluconazole] | 55% | reasonable activity | 0.48 to 0.96 µg/mL | 45% | 55% | –
